# Legend:
# [1] = tested on: PC-3 (prostate carcinoma); test: CCK-8 antiproliferative assay, PC-3; type: cell-based, human; details: for inhibition at 20 µM / IC50: Homo sapiens; for inhibition at 20 µM: 48 h, CCK8, mean of three independent experiments, NA = no activity, read-out: Inhibitory Ratio (Mean% ± SD%) PC-3; for IC50: CCK-8, 48 h, triplicate; for SI: Selectivity index = (IC50 of THLE-2)/(IC50 of PC-3): THLE-2 vs PC-3
# Protocol: (§1) All the thirty-six target derivatives (5a–5f, 10a–10o, and 12a–12o) were screened for antiproliferative activities against three human cancer cell lines (MCF-7, PC-3, and HepG2) and cytotoxicity on a normal human cell (THLE-2) at the concentration of 20 μM by using the CCK8 assay.
# (§2) Thirty-six novel steroidal A-ring fused pyrazine hybrids were evaluated by Cell Counting Kit-8 (CCK-8) assays, to evaluate their in vitro antiproliferative activities on three human cancer cell lines and one normal cell line: MCF-7 (breast carcinoma), PC-3 (prostate carcinoma), HepG2 (liver hepatocellular carcinoma), and THLE-2 ([…]), with 5-fluorouracil as the positive control.
# (§3) Cells (3 × 10^3 cells per well) seeded into 96-well plates (Costar, Shanghai, China) were incubated with Ham’s F-12K containing various concentrations of steroidal pyrazines (5a–5f, 10a–10o, and 12a–12o) for 48 h at 37 °C and 5% COThen, 10 μL of CCK-8 reagent (Beyotime, Shanghai, China) dissolved in PBS (Phosphate buffered saline) was added per well, and continuously incubated at 37 °C for 1 h. Finally, the absorbance of samples taken from each well was measured on a microplate reader at 450 nm. The antiproliferative activities were expressed as inhibitory activity and IC50 values calculated using GraphPad Software 5.0 (GraphPad Software, San Diego, CA, USA), which were the mean values of three independent tests and are shown in Table 1 and Table 2, respectively. The formula used for cell inhibitory rates was (1 - sample absorption/vehicle absorption) × 100%.
# [2] = tested on: THLE-2 (normal human cells); test: CCK-8 cytotoxicity on normal cells, THLE-2; type: cell-based; details: for inhibition at 20 µM: 48 h, CCK8, NA = no activity, read-out: Inhibitory Ratio (Mean% ± SD%) THLE-2; for IC50: CCK-8, 48 h
# Protocol: as §1, §2, §3
# MCF-7 (breast carcinoma) = test: CCK-8 antiproliferative assay, MCF-7; type: cell-based; details: Homo sapiens, MCF7, 48 h, CCK8, mean of three independent experiments, NA = no activity, read-out: Inhibitory Ratio (Mean% ± SD%) MCF-7
# Protocol: as §1, §2, §3
# [3] = tested on: HepG2 (liver hepatocellular carcinoma); test: CCK-8 antiproliferative assay, HepG2; type: cell-based; details: Homo sapiens, 48 h, CCK8, mean of three independent experiments, NA = no activity, read-out: Inhibitory Ratio (Mean% ± SD%) HepG2
# Protocol: as §1, §2, §3
SMILES,inhibition at 20 µM [1] [%],inhibition at 20 µM [2] [%],inhibition at 20 µM (MCF-7 (breast carcinoma)) [%],inhibition at 20 µM [3] [%],melting point [°C],IC50 [1] [µM],SI: Selectivity index = (IC50 of THLE-2)/(IC50 of PC-3) [1],IC50 [2] [µM]
CC1(C)C2=CCC3C(CC[C@@]4(C)C3CC[C@@H]4C(=O)O)[C@@]2(C)Cc2nc3ccc(Br)cc3nc21 (stereo partly shown) [Compound 5d],30 to 60,2.39 ± 0.65,12.4 ± 0.3,,,,,
COc1ccc(NC(=O)c2cnc3c(n2)C(C)(C)C2=CCC4C(CCC5(C)C(C(C)O)CCC45)C2(C)C3)cc1 (stereo not shown) [Compound 12m],30 to 60,5.68 ± 1.9,20 ± 2.33,20.3 ± 3.6,,,,
Cc1cccc(NC(=O)c2cnc3c(n2)C(C)(C)C2=CCC4C(CCC5(C)C(C(C)O)CCC45)C2(C)C3)c1 (stereo not shown) [Compound 12c],19.9 ± 0.43,,3.57 ± 1.69,7.02 ± 3.1,,,,
COc1cccc(NC(=O)c2cnc3c(n2)C(C)(C)C2=CCC4C(CCC5(C)C(C(C)O)CCC45)C2(C)C3)c1 (stereo not shown) [Compound 12l],26.9 ± 1.71,,13.8 ± 2.32,12 ± 1.67,,,,
CC1(C)C2=CCC3C(CC[C@@]4(C)C3CC[C@@H]4C(=O)O)[C@@]2(C)Cc2nccnc21 (stereo partly shown) [Compound 5a],25.1 ± 2.64,,3.09 ± 1.05,17.9 ± 1.16,270 to 292,,,
CC(O)C1CCC2C3CC=C4C(C)(C)c5nc6ccc(F)cc6nc5CC4(C)C3CCC12C (stereo not shown) [Compound 10c],24.9 ± 2.12,,3.85 ± 1.97,,,,,
CC(O)C1CCC2C3CC=C4C(C)(C)c5nc6cc(F)ccc6nc5CC4(C)C3CCC12C (stereo not shown) [Compound 10d],52.8 ± 0.86,,21.2 ± 9.12,22.4 ± 4.89,,,,
CC(O)C1CCC2C3CC=C4C(C)(C)c5nc(C(=O)Nc6ccccc6F)cnc5CC4(C)C3CCC12C (stereo not shown) [Compound 12e],47 ± 3.47,14 ± 1.47,3.28 ± 1.9,17.6 ± 3.19,,,,
CC(O)C1CCC2C3CC=C4C(C)(C)c5nc6cc([N+](=O)[O-])ccc6nc5CC4(C)C3CCC12C (stereo not shown) [Compound 10n],16.6 ± 3.72,,20 ± 2.56,18.7 ± 2.69,,,,
"O=c1[nH]cc(F)c(=O)[nH]1 [Compound 5-FU, 5-fluorouracil, reference compound]",35 ± 1.46,51.8 ± 0.69,47.9 ± 1.67,47.7 ± 1.3,,22.4 ± 0.41,0.58,12.9
Cc1ccccc1NC(=O)c1cnc2c(n1)C(C)(C)C1=CCC3C(CCC4(C)C(C(C)O)CCC34)C1(C)C2 (stereo not shown) [Compound 12b],20.8 ± 7.04,5.15 ± 1.79,8.12 ± 3.17,15.2 ± 5.61,,,,
CC(O)C1CCC2C3CC=C4C(C)(C)c5nc6ccc(Br)cc6nc5CC4(C)C3CCC12C (stereo not shown) [Compound 10g],,,,11.7 ± 2.56,,,,
CC1(C)C2=CCC3C(CC[C@@]4(C)C3CC[C@@H]4C(=O)O)[C@@]2(C)Cc2nc3ccccc3nc21 (stereo partly shown) [Compound 5b],12.5 ± 12.9,12.6 ± 1.22,,7.24 ± 5.83,,,,
CC(O)C1CCC2C3CC=C4C(C)(C)c5nc6ccc(O)cc6nc5CC4(C)C3CCC12C (stereo not shown) [Compound 10i],14.2 ± 0.87,,17.9 ± 6.61,,,,,
CC1(C)C2=CCC3C(CC[C@@]4(C)C3CC[C@@H]4C(=O)O)[C@@]2(C)Cc2nc3cc(Br)ccc3nc21 (stereo partly shown) [Compound 5c],20.7 ± 12.5,12.5 ± 0.9,6.86 ± 7.46,,,,,
CC(O)C1CCC2C3CC=C4C(C)(C)c5nc(C(=O)Nc6cccc(Cl)c6)cnc5CC4(C)C3CCC12C (stereo not shown) [Compound 12i],35.9 ± 2.97,,20.2 ± 0.52,15.9 ± 2.93,,,,
CC(O)C1CCC2C3CC=C4C(C)(C)c5nc(C(=O)Nc6ccc(F)cc6)cnc5CC4(C)C3CCC12C (stereo not shown) [Compound 12g],> 60,17.6 ± 1.39,33.4 ± 5.35,,,6.88 ± 0.04,2.14,14.7
CC(O)C1CCC2C3CC=C4C(C)(C)c5nc(C(=O)Nc6cccc(F)c6)cnc5CC4(C)C3CCC12C (stereo not shown) [Compound 12f],33.2 ± 4.68,,0.8 ± 3.31,12.8 ± 4.26,,,,

SMILES,inhibition at 20 µM [1] [%],inhibition at 20 µM [2] [%],inhibition at 20 µM (MCF-7 (breast carcinoma)) [%],inhibition at 20 µM [3] [%],melting point [°C],IC50 [1] [µM],SI: Selectivity index = (IC50 of THLE-2)/(IC50 of PC-3) [1],IC50 [2] [µM]
CC(O)C1CCC2C3CC=C4C(C)(C)c5nc6cc(Cl)ccc6nc5CC4(C)C3CCC12C (stereo not shown) [Compound 10f],59.6 ± 1.29,,23.9 ± 1.87,32.6 ± 0.41,,,,
CC(O)C1CCC2C3CC=C4C(C)(C)c5nc6ccc([N+](=O)[O-])cc6nc5CC4(C)C3CCC12C (stereo not shown) [Compound 10m],16 ± 0.57,,14.7 ± 0.25,18.2 ± 7.46,,,,
CC(O)C1CCC2C3CC=C4C(C)(C)c5nc(C(=O)NC6CCCCC6)cnc5CC4(C)C3CCC12C (stereo not shown) [Compound 12o],,,15.1 ± 1.25,24.1 ± 2.34,,,,
CC(O)C1CCC2C3CC=C4C(C)(C)c5nc(C(=O)Nc6ccc(Cl)cc6)cnc5CC4(C)C3CCC12C (stereo not shown) [Compound 12j],51.1 ± 1.02,,24.9 ± 4.84,23.1 ± 1.27,,,,
CC(O)C1CCC2C3CC=C4C(C)(C)c5nc6ccccc6nc5CC4(C)C3CCC12C (stereo not shown) [Compound 10b],12.5 ± 12.9,4.35 ± 2.27,9.95 ± 0.55,7.24 ± 5.83,,,,
CC(O)C1CCC2C3CC=C4C(C)(C)c5nc6cc(O)ccc6nc5CC4(C)C3CCC12C (stereo not shown) [Compound 10j],30 to 60,,18.6 ± 0.92,,,,,
COc1ccc2nc3c(nc2c1)CC1(C)C(=CCC2C1CCC1(C)C(C(C)O)CCC21)C3(C)C (stereo not shown) [Compound 10k],,3.54 ± 2.16,11.2 ± 0.49,29.3 ± 5.38,,,,
Cc1ccc(NC(=O)c2cnc3c(n2)C(C)(C)C2=CCC4C(CCC5(C)C(C(C)O)CCC45)C2(C)C3)cc1 (stereo not shown) [Compound 12d],22.6 ± 2.25,18.2 ± 6.76,25 ± 3.43,16.3 ± 3.72,,,,
CC(O)C1CCC2C3CC=C4C(C)(C)c5nccnc5CC4(C)C3CCC12C (stereo not shown) [Compound 10a],,,4.99 ± 3.09,6.2 ± 5.25,150 to 152,,,
CC1(C)C2=CCC3C(CC[C@@]4(C)C3CC[C@@H]4C(=O)O)[C@@]2(C)Cc2nc3ccc(O)cc3nc21 (stereo partly shown) [Compound 5f],,,18.4 ± 13.1,24.9 ± 2.3,,,,
CC(O)C1CCC2C3CC=C4C(C)(C)c5nc(C(=O)Nc6ccccc6Cl)cnc5CC4(C)C3CCC12C (stereo not shown) [Compound 12h],41.7 ± 4.79,,,21.9 ± 2.05,,,,
CC(O)C1CCC2C3CC=C4C(C)(C)c5nc(C(=O)Nc6ccccc6)cnc5CC4(C)C3CCC12C (stereo not shown) [Compound 12a],24.2 ± 0.94,,,12.5 ± 12.9,,,,
CC(O)C1CCC2C3CC=C4C(C)(C)c5nc6ccc(Cl)cc6nc5CC4(C)C3CCC12C (stereo not shown) [Compound 10e],44.8 ± 3.26,,,25.6 ± 2.51,,,,
COc1ccc2nc3c(nc2c1)C(C)(C)C1=CCC2C(CCC4(C)C(C(C)O)CCC24)C1(C)C3 (stereo not shown) [Compound 10l],30 to 60,22.2 ± 2.72,41.6 ± 1.28,33.3 ± 1.13,,,,
CC1(C)C2=CCC3C(CC[C@@]4(C)C3CC[C@@H]4C(=O)O)[C@@]2(C)Cc2nc3cc(O)ccc3nc21 (stereo partly shown) [Compound 5e],,,6.57 ± 0.09,,,,,
CC(O)C1CCC2C3CC=C4C(C)(C)c5nc6cc(Br)ccc6nc5CC4(C)C3CCC12C (stereo not shown) [Compound 10h],21.7 ± 1.27,2.39 ± 0.07,21.2 ± 3.73,13.1 ± 0.68,,,,
COc1ccccc1NC(=O)c1cnc2c(n1)C(C)(C)C1=CCC3C(CCC4(C)C(C(C)O)CCC34)C1(C)C2 (stereo not shown) [Compound 12k],32.9 ± 1.19,4.71 ± 1.25,17.7 ± 1.01,12.9 ± 0.43,,,,

# Source: PMC7084598, “Design, Synthesis, and Biological Evaluation of Two Series of Novel A-Ring Fused Steroidal Pyrazines as Potential Anticancer Agents” (International Journal of Molecular Sciences, 2020)
